# In US4377592A, “Antiarrhythmic activity of cetiedil” (Innothera, priority 1979, dated 1983):
# Structures can show the parent of a compound that is named as a salt. Where two headings read alike, the source gives them in different places.
# What was measured:
# [1] = tested on: chloroform-induced ventricular fibrillation; experiment: Chloroform-induced ventricular fibrillation in the mouse; format: in vivo
# Excerpt: In this technique first described by LAWSON, J. W. in J. Pharm. Exp. Ther. 1968, 160, 22 and Vargaftig, B. B. et al in Eur. J. Pharmacol. 1969, 6, 49, the inhalation of chloroform vapour produced in the mouse apnea followed by ventricular fibrillation.
# The mechanism of this technique remains unknown.
# [2] = tested on: polymorphous arrhythmias induced by adrenaline petrol-ether; experiment: Polymorphous arrhythmias induced in the anaesthetised guinea-pig by adrenaline and petrol ether; format: in vivo; details: for ED50: Cavia porcellus, ip, read-out: ED50 (dose decreasing by half the duration of the disturbances); for index I = LD50 IV/ED50: Table 1, adrenaline petrol-ether, guinea-pig ED50, mouse LD50; for RELATIVE ACTIVITY: Table 1, relative to cetiedil = 1
# Excerpt: Adrenaline in high dosage is a powerful arrhythmogenic stimulus to a myocardia induced by petrol ether, as recognized in the guinea-pig by LE MARECHAL J., Thesis Doct.
# [3] = tested on: ventricular fibrillation induced by CaCl2; experiment: Calcium (CaCl2) induced ventricular fibrillation in the anaesthetized rat, Malinow's technique; format: in vivo; details: for index LD50/AD50 (ventricular fibrillation): Table 2; for RELATIVE ACTIVITY (ventricular fibrillation): Table 2, relative to cetiedil = 1; for RELATIVE ACTIVITY (death): Table 3, relative to cetiedil = 1
# Description: According to MALINOW, M. R., et coll. Acta. Physiol Latino. Americ.
# Using the anaesthetized rat, 200 mg/kg of CaCl2 was injected two minutes after the substances to be tested. The ECG was recorded continuously in lead II.
# in vivo = details: mouse, iv
# [4] = tested on: chloroform-induced ventricular fibrillation; details: mouse, chloroform test, IP; other substances from Linee thesis 1975; cited from earlier work
# [5] = tested on: rabbit cornea oculo-palpebral reflex; format: in vivo; details: for TOTAL DEGREE OF ANAESTHESIA FOR 60 minutes: rabbit cornea, 1.00 g./100, HCl salt, total 13 no anaesthesia, 1300 complete; for local anaesthetic effect compared with cetiedil 0.5%: rabbit
# Excerpt: For the purpose of this study, the classical technique of REGNIER J., Thesis Doct. […] This consists of repeating touching of the rabbit cornea until an oculo-palpebral reflex is obtained. It should be noted that […], in common with the reference substances, was used in the form of the HCl Salt.
# [6] = tested on: isolated guinea-pig atrial; experiment: Stimulated isolated guinea pig atrial (technique of Dawes); format: cell-based
# Excerpt: (§1) The technique of DAWES (modified by ALLIES ET AL.) was used with the isolated guinea-pig atrial, and the technique of DUCHENE-MARULLAZ, J. Pharmacol. Paris, 1970, 1, 539, in the anaesthetized dog. This method is used to study the permeability of atrio-ventricular conduction, and thus more precisely conduction at the level of Tawara's nod.
# rat aortic fragments = experiment: Contraction of rat aorta fragment induced by potassium depolarisation; format: cell-based; details: mean ± SD, potassium depolarisation
# Description: Fragments of aorta removed from rats are immersed in survival fluid in the presence of carbogene at 37° C. By modifying the ionic equilibrium of the survival medium, it was possible to study the effects of […] on contraction of the aortic fragments induced by depolarisation with potassium or calcium.
# [7] = tested on: ventricular tachycardia induced by Ouabain; experiment: Ouabain induced ventricular tachycardia in the dog (Lucchesi and Hardman); format: in vivo; details: at the average effective dose
# Excerpt: The method used is that of […] and HARDMAN, J. Pharmacol. Exp. Ther. 1961, 132, 372-381. Ventricular tachycardia was obtained by the sequential administration of Ouabain until a permanent ventricular tachycardia developed. Following observation of the effect of the substance, the reappearance of this ventricular tachycardia following the injection of insulin was confirmed, thereby showing the persistence within the heart of a toxic dose of Ouabain (Average dose of Ouabain 71.25 γ kg IV).
# [8] = tested on: atrio-ventricular conduction; experiment: Atrio-ventricular conduction in the anaesthetized dog (Duchene-Marullaz); format: in vivo
# Excerpt: as §1
# [9] = Rattus norvegicus, iv, read-out: AD50 protection against death
# [10] = Rattus norvegicus, iv, read-out: AD 50 protection against ventricular fibrillation
# [11] = mouse, chloroform vapour inhalation, IP, read-out: ED50
# [12] = guinea-pig, urethane 1.2 g/kg IP, substance 5 minutes before intoxication
# [13] = anaesthetized rat, CaCl2 200 mg/kg IV two minutes after substance, read-out: AD 50 protection against ventricular fibrillation
smiles,measurement,setting,value
CC[C@H]1[C@@H]2C[C@H]3[C@@H]4N(C)c5ccccc5[C@]45C[C@@H]([C@H]2[C@H]5O)N3[C@@H]1O [Ajmaline],ED50,"[1]; Mus musculus, ip",6.6 mg/kg
same,ED50,[2],0.6 mg/kg
same,index I = LD50 IV/ED50,[2],43.33
same,RELATIVE ACTIVITY,[2],0.91
same,ED50,[3]; [9],> 5 mg/kg
same,ED50,[3]; [10],2.25 mg/kg
same,index LD50/AD50 (ventricular fibrillation),[3],"11,56"
same,RELATIVE ACTIVITY (ventricular fibrillation),[3],"0,62"
same,protection against death,"[3]; rat, dose of 5 mg/kg",none against death
same,protection against ventricular fibrillation,"[3]; rat, dose of 5 mg/kg",protected all of the animals against ventricular fibrillation
same,LD50,in vivo,26 mg/kg
CN1[C@@H]2CC[C@H]1C[C@@H](OC(=O)C(CO)c1ccccc1)C2 (stereo partly drawn) [Atropine],ED50,[4],100 mg/kg IP
COC(=O)[C@H]1[C@@H](OC(=O)c2ccccc2)C[C@@H]2CC[C@H]1N2C [COCAINE],TOTAL DEGREE OF ANAESTHESIA FOR 60 minutes,[5],706.4
same,local anaesthetic effect compared with cetiedil 0.5%,[5]; 1 p.100,same effect
CC(C)N(CCC(C(N)=O)(c1ccccc1)c1ccccn1)C(C)C (stereo not drawn) [DISOPYRAMIDE],% DECREASE SPONTANEOUS RATE,[6]; concentration 10^-5,8%
same,% DECREASE m.f.s. (maximum frequency followed by the atrial),[6]; concentration 10^-5,18%
same,% DECREASE SPONTANEOUS RATE,[6]; concentration 10^-6,6%
same,% DECREASE m.f.s. (maximum frequency followed by the atrial),[6]; concentration 10^-6,6%
CN(C)CCCN1c2ccccc2CCc2ccccc21 [Imipramine],ED50,[4],30 mg/kg IP
CCN(CC)CCOC(=O)c1ccc(N)cc1 [PROCAINE],TOTAL DEGREE OF ANAESTHESIA FOR 60 minutes,[5],61.5
same,local anaesthetic effect compared with cetiedil 0.5%,[5]; 1 p.100,only half less active
same,pD'2 (mean),rat aortic fragments,2.55 ± 0.06
CCN(CC)CCNC(=O)c1ccc(N)cc1 [Procainamide],ED50,[1]; [11],80 mg/kg
same,ED50,[2]; [12],1.4 mg/kg
same,index I = LD50 IV/ED50,[2],75.00
same,RELATIVE ACTIVITY,[2],1.58
same,ED50,[3]; [9],17 mg/kg
same,index LD50/AD50 (ventricular fibrillation),[3],"7,24"
same,RELATIVE ACTIVITY (ventricular fibrillation),[3],"0,39"
same,index LD50/AD50 (death),[3]; Table 3,6.18
same,RELATIVE ACTIVITY (death),[3],0.38
same,ED50,[3]; [13],14.5 mg/kg
same,LD50,in vivo,105 mg/kg
CC(C)NCC(O)COc1cccc2ccccc12 (stereo not drawn) [Propranolol],ED50,[2]; [12],0.38 mg/kg
same,RELATIVE ACTIVITY,[2],1.22
same,ED50,[3]; [9],3.9 mg/kg
same,RELATIVE ACTIVITY (ventricular fibrillation),[3],"0,36"
same,RELATIVE ACTIVITY (death),[3],0.35
same,ED50,[3]; [13],3.25 mg/kg
same,% DECREASE m.f.s. (maximum frequency followed by the atrial),[6]; concentration 10^-6,34%
same,% DECREASE m.f.s. (maximum frequency followed by the atrial),[6]; concentration 10^-7,7%
same,TOTAL DEGREE OF ANAESTHESIA FOR 60 minutes,[5],876.5
same,local anaesthetic effect compared with cetiedil 0.5%,[5]; in vivo,same effect
"C=C[C@H]1C[N@@]2CC[C@H]1C[C@@H]2[C@@H](O)c1ccnc2ccc(OC)cc12 [Quinidine sulfate, reference compound]",duration of return to sinus rhythm,[7],less than 30 min
C=C[C@H]1C[N@@]2CC[C@H]1C[C@@H]2[C@@H](O)c1ccnc2ccc(OC)cc12 [Quinidine],ED50,[1]; [11],26 mg/kg
same,ED50,[3]; [9],8 mg/kg
same,ED50,[3]; [10],5.5 mg/kg
same,% DECREASE SPONTANEOUS RATE,[6]; concentration 10^-5,15%
same,% DECREASE m.f.s. (maximum frequency followed by the atrial),[6]; concentration 10^-5,25%
same,% DECREASE SPONTANEOUS RATE,[6]; concentration 10^-6,3%
same,% DECREASE m.f.s. (maximum frequency followed by the atrial),[6]; concentration 10^-6,10%
same,% DECREASE SPONTANEOUS RATE,[6]; concentration 10^-7,0%
same,effect on atrio-ventricular conduction after denervation,"[8]; anaesthetized dog, denervated",Depression of atrio-ventricular conduction is significant and proportional to the dose administered
same,effect on atrio-ventricular conduction,"[8]; anaesthetized dog, intact",not changed in the intact animal
same,chronotropic effect,[8]; dog,positive or negative action according to whether the dog is intact or denervated
same,LD50,in vivo,67 mg/kg
COC(=O)[C@@H]1[C@H]2C[C@H]3c4[nH]c5ccccc5c4CCN3C[C@@H]2CC[C@@H]1O [Yohimbine],ED50,[4],10 mg/kg IP
